Experimental data from patent US9770026B2, “Substituted pyrimidine compound and uses thereof” (Shenyang Sinochem Agrochemicals R&D Co., Ltd., priority 2012, dated 2017).

Legend:
[1] = tested on: rice blast; assay: microbe, parasite or virus in culture; type: cell-based; conditions: Pyricularia oryzae, read-out: inhibition rate against rice blast, 25 ppm, in vitro
[2] = tested on: cucumber gray mold; assay: fungicidal activity in vitro (inhibition rate) against cucumber gray mold; type: cell-based; conditions: 25 ppm, in vitro; read-out: inhibition rate against cucumber gray mold
[3] = tested on: Diamond back moth; assay: insecticidal activity against diamond back moth, airbrush spray; type: in vivo; conditions: 72 h; for pest or weed control at 600 µg/mL: 600 mg/L
Procedure, shortened: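 Airbrush leaf-disc spray test: both faces of 2 cm cabbage discs received 0.5 ml of test solution at 0.7 kg/cm^2. Solutions were made in acetone:methanol (1:1) and brought to concentration with 0.1% Tween 80 in water. Ten second-instar larvae per disc, triplicates, were held at 25° C and 60˜70% R.H., with mortality recorded at 72 hrs.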

[4] = tested on: armyworm; assay: bioactivity test against armyworm, airbrush spray; type: in vivo; conditions: 72 h, 600 mg/L; read-out: Insecticidal activity against armyworm (%)
[5] = tested on: Green peach aphids (Myzus Persicae Sulzer); assay: bioactivity test against green peach aphid, airbrush foliar spray; type: in vivo; conditions: Myzus persicae, foliar, 48 h, contrastive test, read-out: Insecticidal activity against peach aphid (%); for pest or weed control at 10 µg/mL: 10 mg/L; for pest or weed control at 100 µg/mL: 100 mg/L; for pest or weed control at 600 µg/mL: 600 mg/L
Procedure, shortened: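 Death rate was scored at 48 hrs, held at 25±1 C and 60±5% RH, following airbrush foliar spray (0.5 mL, 10 psi) onto cabbage leaf discs bearing about 15-30 aphids. Test solutions: compound dissolved in 1:1 acetone:methanol, brought to concentration with 0.1% tween 80 water.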

[6] = tested on: carmine spider mite; assay: bioactivity test against carmine spider mite, airbrush spray; type: in vivo; conditions: Tetranychus cinnabarinus, 72 h, 600 mg/L; contrastive test; read-out: Insecticidal activity against carmine spider mite (% )
Procedure, shortened: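 Broadbean seedlings infested with adult mites were sprayed with compound (acetone/methanol stock diluted in 0.1% Tween 80 water) by airbrush at 0.7 kg/cm^2, 0.5 ml. Three replicates were run. Mortality was scored after 72 hrs.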

[7] = tested on: corn rust; assay: protectant activity in vivo against corn rust; conditions: Zea mays, 168 h, read-out: control effect against corn rust (%), 400 mg/L; protectant activity
[8] = tested on: wheat powdery mildew; assay: protectant activity in vivo against wheat powdery mildew; conditions: Triticum aestivum, 168 h, read-out: control effect against wheat powdery mildew (%), 400 mg/L; protectant activity
[9] = tested on: cucumber downy mildew; assay: protectant activity in vivo against cucumber downy mildew; conditions: Cucumis sativus, 168 h, protectant activity; for pest or weed control at 400 µg/mL: read-out: control effect against cucumber downy mildew (%), 400 mg/L

Row | Compound | inhibition at 25 ppm [1] | inhibition at 25 ppm [2] | pest or weed control at 600 µg/mL [3] | pest or weed control at 600 µg/mL [4] | pest or weed control at 10 µg/mL [5] | pest or weed control at 100 µg/mL [5] | pest or weed control at 600 µg/mL [5] | pest or weed control at 600 µg/mL [6] | pest or weed control at 400 µg/mL [7] | pest or weed control at 400 µg/mL [8] | pest or weed control at 400 µg/mL [9] | pest or weed control at 10 µg/mL ([3]; 10 mg/L) | pest or weed control at 100 µg/mL ([3]; 100 mg/L) | pest or weed control at 25 µg/mL ([9]; read-out: control effect against cucumber downy mildew (%), 25 mg/L) | pest or weed control at 50 µg/mL ([9]; read-out: control effect against cucumber downy mildew (%), 50 mg/L) | pest or weed control at 100 µg/mL ([9]; read-out: control effect against cucumber downy mildew (%), 100 mg/L)
1 | Cc1ncnc(NC(=O)Cc2ccc(Oc3ccc(C(F)(F)F)cc3Cl)cc2)c1Cl [CK58, reference compound] | < 50% | 0% | 0% | 0% | 0% | 0% | 100% | 0% | 0% | 0% | 0% | – | – | – | – | –
2 | CCc1ncnc(NC(=O)Cc2ccc(Oc3ccc(C(F)(F)F)cc3)cc2)c1Cl [CK59, reference compound] | 0% | 0% | 57% | 14% | 0% | 15% | 75% | 0% | 0% | 0% | 80% | – | – | – | – | –
3 | Cc1ncnc(NC(=O)Cc2ccc(Oc3ncc(C(F)(F)F)cc3Cl)cc2)c1Cl [CK60, reference compound] | 0% | 0% | 86% | 0% | 0% | 0% | 81% | 0% | 0% | 0% | 100% | 15% | 25% | 0% | 0% | 10%
